From article PMC7114316 (Antiviral Research, 2019)
Where two headings read alike, the source gives them in different places.

Tests used:
[1] = target: FIPV 3CL^pro (Feline coronavirus, UniProt Q98VG9); assay: FIPV 3CLpro protease inhibition assay; type: biochemical, feline infectious peritonitis virus (FIPV strain 79–1146); conditions: for IC50: 35 nM enzyme, 6 μM fluorogenic substrate
[2] = system: FIPV strain 79–1146; assay: Antiviral assay, prophylactic activity; type: cell-based, feline infectious peritonitis virus; conditions: for EC50: read-out: Prophylactic antiviral activity EC50, IPMA; for Prophylactic antiviral activity SI: SI = CC50/EC50; for concentration that completely protects the cells from virus infection: prophylactic or protective activity
[3] = system: CRFK cells; assay: Cytotoxicity assay; type: cell-based, feline; conditions: read-out: Cytotoxicity CC50, 48 h, MTS assay
[4] = system: FIPV strain 79–1146; assay: Antiviral assay in FIPV-infected CRFK cells, summary over the test conditions; type: cell-based, feline infectious peritonitis virus; conditions: for control of FIPV infection under all the tested conditions: result in words; for EC50: Alphacoronavirus 1, CRFK, read-out: EC50, range over antiviral test conditions
[5] = system: FIPV strain 79–1146; assay: Antiviral assay, pre-viral entry activity; type: cell-based, feline infectious peritonitis virus; conditions: for EC50: read-out: Pre-viral entry EC50, IPMA, 24 h; for Pre-viral entry SI: SI = CC50/EC50
[6] = system: FIPV strain 79–1146; assay: Antiviral assay, post-viral entry activity; type: cell-based, feline infectious peritonitis virus; conditions: for EC50: read-out: Post-viral entry EC50, IPMA; for Post-viral entry SI: SI = CC50/EC50
[7] = Cytotoxicity assay; type: cell-based, feline; conditions: cat, CRFK cells
[8] = system: 3CL^pro of SARS-CoV; conditions: read-out: IC50, 3CL^pro of SARS-CoV; cited from earlier work
[9] = target: HIV-1 integrase; conditions: read-out: IC50, anti-HIV-1 integrase activities; ref Neamati et al., 1997; cited from earlier work
[10] = read-out: Protease inhibition assay (IC50)
[11] = compound incubation at 37 °C for 2 h before inoculation with FIPV at 100 TCID50/well, CRFK cells
[12] = 100 TCID50 FIPV incubation with compounds, CRFK cells
[13] = 100 TCID50 FIPV adsorption at 37 °C for 2 h before adding the tested compounds, CRFK cells
[14] = Protease inhibition assay (IC50)

Sequence of FIPV 3CL^pro (Q98VG9 2904-3205 limits assumed): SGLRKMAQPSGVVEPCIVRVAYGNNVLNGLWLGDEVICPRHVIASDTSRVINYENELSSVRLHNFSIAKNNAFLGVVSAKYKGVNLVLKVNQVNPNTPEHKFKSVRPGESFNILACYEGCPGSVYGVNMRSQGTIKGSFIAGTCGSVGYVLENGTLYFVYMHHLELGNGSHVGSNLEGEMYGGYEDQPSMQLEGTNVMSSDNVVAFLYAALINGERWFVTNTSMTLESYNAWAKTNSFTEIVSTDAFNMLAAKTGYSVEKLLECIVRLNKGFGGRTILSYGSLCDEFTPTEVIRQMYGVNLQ

C=C1C[C@@]23CC[C@H]4[C@@](C)(CCC[C@@]4(C)C(=O)O)[C@@H]2CC[C@]1(O)C3 [CID452967]
IC50 [1, 10]: > 500 µM

O=C1C(=O)N(Cc2ccc(Cc3ccc(CN4C(=O)C(=O)c5ccccc54)cc3)cc2)c2ccccc21 [CID3821945]
EC50 [2, 11]: > 200 µM
CC50 [3]: 306.8 ± 0.175 µM
control of FIPV infection under all the tested conditions [4]: could not control FIPV infection
EC50 [5, 12]: > 100 µM
EC50 [6, 13]: > 100 µM
IC50 [1, 10]: 10.3 ± 2.5 µM

COc1cc(O)c2c(=O)cc(-c3ccc(O)c(O)c3)oc2c1 [CID5318214]
EC50 [2, 11]: > 200 µM
CC50 [3]: 339.3 ± 0.03 µM
control of FIPV infection under all the tested conditions [4]: could not control FIPV infection
EC50 [5, 12]: > 100 µM
EC50 [6, 13]: > 100 µM
IC50 [1, 10]: 28.5 ± 4.2 µM

Cc1ccc(S(=O)(=O)N/N=C\C=C\c2ccccc2)cc1 [CID5372747]
EC50 [2, 11]: > 200 µM
CC50 [3]: 336.2 ± 0.13 µM
control of FIPV infection under all the tested conditions [4]: could not control FIPV infection
EC50 [5, 12]: > 100 µM
EC50 [6, 13]: > 200 µM
IC50 [1, 10]: 78.4 ± 2.6 µM

C[C@@H]1O[C@@H](Oc2cc(O)c3c(=O)c(O)c(-c4ccc(O)c(O)c4)oc3c2)[C@H](O)[C@H](O)[C@H]1O [CID5748601]
EC50 [2, 11]: > 200 µM
CC50 [3]: 425.3 ± 0.13 µM
control of FIPV infection under all the tested conditions [4]: could not control FIPV infection
EC50 [5, 12]: > 100 µM
EC50 [6, 13]: > 100 µM
IC50 [1, 10]: 77.2 ± 13.8 µM

O=c1cc(-c2ccc(O)c(O)c2)oc2cc(OCc3ccccc3)cc(O)c12 [CID71313853]
IC50 [1, 10]: > 500 µM

Cc1cccc(C)c1OCC(=O)N[C@@H](Cc1ccccc1)[C@@H](O)C[C@H](Cc1ccccc1)NC(=O)[C@H](C(C)C)N1CCCNC1=O [Lopinavir, reference compound]
EC50 ([2]; Alphacoronavirus 1, CRFK): 31.7 ± 1.37 µM
Prophylactic antiviral activity SI [2]: 16.61
CC50 at 48 h [7]: > 500 µM
EC50 [4]: 5.38 to 31.7 µM
EC50 ([5]; Alphacoronavirus 1, CRFK): 8.56 ± 0.47 µM
Pre-viral entry SI [5]: 61.52
IC50 [8]: ~50 µM
EC50 ([6]; Alphacoronavirus 1, CRFK): 5.38 ± 2.32 µM
Post-viral entry SI [6]: 97.83

CC[C@](C)(O)C(=O)O[C@H]1C(=O)O[C@@H]2C[C@H]3C(C)=C[C@H](O)[C@@H](O)[C@]3(C)[C@H]3[C@]4(O)OC[C@]32[C@@H]1[C@@H](C)[C@H]4O [NSC14975]
IC50 [1, 14]: > 500 µM

O=C1c2cc(O)c(O)cc2OC(c2ccc(O)c(O)c2)C1O (centres unmarked) [NSC36398]
IC50 [1, 10]: > 500 µM

C[C@]1(O)CC[C@H]2[C@@H]3CC[C@H]4C[C@@H](O)CC[C@]4(C)[C@@]3(F)[C@@H](O)C[C@@]21C [NSC38273]
IC50 [1, 10]: > 500 µM

COc1cc(C)c2c(c1C=O)Oc1c(c(C)c(O)c3c1C(O)OC3=O)OC2=O (centres unmarked) [NSC87511, Stictic acid]
EC50 ([2]; Alphacoronavirus 1, CRFK): 26.9 ± 1.25 µM
Prophylactic antiviral activity SI [2]: 13.80
concentration that completely protects the cells from virus infection ([2]; CRFK cells): 20 to 50 µM
CC50 at 48 h [7]: 371.9 ± 0.26 µM
EC50 ([5]; Alphacoronavirus 1, CRFK): 16.2 ± 1.33 µM
Pre-viral entry SI [5]: 22.90
EC50 ([6]; Alphacoronavirus 1, CRFK): 21.8 ± 1.64 µM
Post-viral entry SI [6]: 17.04
Ki ([1]; Ki value, competitive inhibition, 35 nM FIPV 3CL^pro, substrate 3 to 40 μM): 17 ± 1.8 µM
IC50 [1, 14]: 29.4 ± 4.6 µM
IC50 [9]: < 50 µM

CC[C@H]1CN2CCc3cc(OC)c(OC)cc3[C@@H]2C[C@@H]1C[C@H]1NCCc2c1[nH]c1ccc(O)cc21 [NSC131547]
IC50 [1, 10]: > 500 µM

C/C(=C\COc1ccc2ccc(=O)oc2c1)C1=CC(=O)C(C)(C)O1 [NSC142227]
IC50 [1, 10]: > 500 µM

CC(=O)O[C@@H]1[C@@H](O)C2=C3[C@]4(C)[C@@H]1C(C)(C)C(=O)C[C@@H]4[C@]3(O)[C@H](OC(C)=O)[C@@]1(C[C@@H]1C)C2=O [NSC270914]
IC50 [1, 10]: > 500 µM

CO[C@H]1C[C@@H]2\C=C(C)/C=C/C=C\C(=O)N[C@H](c3ccccc3)C/C=C/CC[C@H](O)CC(=O)C2=C1O [NSC343256, Hitachimycin]
concentration that completely protects the cells from virus infection ([2]; CRFK cells): 20 to 50 µM
EC50 [2, 11]: 16.2 ± 1.23 µM
CC50 [3]: 56.9 ± 0.73 µM
Pre-viral entry SI [5]: 2.89
EC50 [5, 12]: 3.83 ± 0.44 µM
Post-viral entry SI [6]: 2.77
EC50 [6, 13]: 4 ± 0.37 µM
IC50 [1, 10]: 24.5 ± 8.9 µM

CC1Oc2cc3c(-c4c(O)cc(O)c5c(O)c6c(cc45)OC(C)C(C)C6=O)c(O)cc(O)c3c(O)c2C(=O)C1C (centres unmarked) [NSC345647, Chaetochromin]
Prophylactic antiviral activity SI [2]: 3.69
concentration that completely protects the cells from virus infection ([2]; CRFK cells): 20 to 50 µM
EC50 [2, 11]: 2.85 ± 0.52 µM
CC50 [3]: 10.5 ± 0.13 µM
Pre-viral entry SI [5]: 8.88
EC50 [5, 12]: 1.19 ± 0.95 µM
Post-viral entry SI [6]: 2.20
EC50 [6, 13]: 4.87 ± 0.12 µM
IC50 [1, 10]: 6.3 ± 2.1 µM

NC(=O)c1ncn([C@@H]2O[C@H](CO)[C@@H](O)[C@H]2O)n1 [Ribavirin, reference compound]
EC50 ([2]; Alphacoronavirus 1, CRFK): > 200 µM
antiviral effect in the prophylaxis study ([2]; result in words): did not show an antiviral effect
CC50 at 48 h [7]: > 500 µM
EC50 [4]: 48.9 to 74 µM
EC50 ([5]; Alphacoronavirus 1, CRFK): 48.9 ± 1.77 µM
Pre-viral entry SI [5]: 25.68
EC50 ([6]; Alphacoronavirus 1, CRFK): 73.98 ± 0.18 µM
Post-viral entry SI [6]: 16.96
